BindingDB's records for patent US8592379 (Kyoto University, 2013)

Target: KiSS-1 receptor (Homo sapiens, UniProt Q969F8)
Assay: Binding Assay

Chain of KiSS-1 receptor (Q969F8 whole entry): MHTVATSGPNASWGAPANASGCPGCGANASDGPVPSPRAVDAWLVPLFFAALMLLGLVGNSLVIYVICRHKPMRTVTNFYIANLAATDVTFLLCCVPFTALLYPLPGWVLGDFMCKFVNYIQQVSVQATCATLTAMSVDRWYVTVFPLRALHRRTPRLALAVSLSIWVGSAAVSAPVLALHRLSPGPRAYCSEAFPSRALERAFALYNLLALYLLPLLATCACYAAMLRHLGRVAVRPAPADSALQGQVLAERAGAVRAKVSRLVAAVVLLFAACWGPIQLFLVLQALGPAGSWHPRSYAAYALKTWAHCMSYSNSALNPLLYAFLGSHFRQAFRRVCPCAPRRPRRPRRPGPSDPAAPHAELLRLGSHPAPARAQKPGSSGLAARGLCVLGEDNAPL

`CNC[C@@H](O)CC(CC(C)C)C(C)=O` (stereo partly specified) [US8592379, 37] gave an IC50 of 0.24 nM.
